Measured values: patent publication US20210300940A1 (Merck Patent GmbH, priority 2018, published 2021)

Key:
TLR7 = target: T1, TLR7 (Homo sapiens, UniProt Q9NYK1); assay: HEK/293 TLR7 Cell Assay; assay type: cell-based; settings: TLR7/NFKb HEK cells, R848 agonist 10 uM final concentration, Steady-Glo readout; read-out: TLR7 potency
T1 construct: expressed in transfected cells; host or cells: HEK/293 cells carrying TLR7 and an NF-kB luciferase reporter
T1 sequence (Q9NYK1 27-1049): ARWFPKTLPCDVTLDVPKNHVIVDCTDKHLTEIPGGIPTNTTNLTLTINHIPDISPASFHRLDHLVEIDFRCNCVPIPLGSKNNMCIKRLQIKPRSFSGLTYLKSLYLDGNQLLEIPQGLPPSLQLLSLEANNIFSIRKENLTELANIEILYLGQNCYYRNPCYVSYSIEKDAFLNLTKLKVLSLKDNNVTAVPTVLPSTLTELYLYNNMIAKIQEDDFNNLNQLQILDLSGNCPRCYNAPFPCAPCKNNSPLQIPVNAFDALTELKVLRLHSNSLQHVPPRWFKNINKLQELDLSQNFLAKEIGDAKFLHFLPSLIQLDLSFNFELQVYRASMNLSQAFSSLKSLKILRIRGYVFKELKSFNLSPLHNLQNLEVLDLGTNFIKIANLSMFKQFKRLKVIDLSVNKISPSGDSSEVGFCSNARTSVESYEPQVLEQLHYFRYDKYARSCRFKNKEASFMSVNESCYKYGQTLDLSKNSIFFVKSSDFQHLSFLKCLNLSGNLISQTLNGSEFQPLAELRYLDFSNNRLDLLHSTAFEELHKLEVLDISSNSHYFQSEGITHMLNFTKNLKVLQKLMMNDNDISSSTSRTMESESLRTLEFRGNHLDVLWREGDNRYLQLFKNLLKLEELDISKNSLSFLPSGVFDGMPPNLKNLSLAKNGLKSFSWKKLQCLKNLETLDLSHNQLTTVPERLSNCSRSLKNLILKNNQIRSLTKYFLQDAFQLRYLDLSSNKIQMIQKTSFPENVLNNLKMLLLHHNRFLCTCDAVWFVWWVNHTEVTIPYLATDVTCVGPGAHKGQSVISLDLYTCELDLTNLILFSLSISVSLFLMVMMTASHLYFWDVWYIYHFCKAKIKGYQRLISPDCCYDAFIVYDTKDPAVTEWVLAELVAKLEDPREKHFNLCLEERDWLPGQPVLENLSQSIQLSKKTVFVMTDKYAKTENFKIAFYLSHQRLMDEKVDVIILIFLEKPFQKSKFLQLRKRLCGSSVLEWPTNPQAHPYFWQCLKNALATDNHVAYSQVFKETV
Method in brief: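 TLR7/NF-κB reporter HEK293 cells, 5000/well, cultured 24 h, then preincubated 30 min with compound before R848 agonist (10 uM final). After 5 h stimulation, Steady-Glo luciferase luminescence read.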

TLR8 = target: T2, TLR8 (Homo sapiens, UniProt Q9NR97); assay: HEK/293 TLR8 Cell Assay; assay type: cell-based; settings: HEK cells, R848 agonist 30 uM final concentration, Steady-Glo readout; read-out: TLR8 potency
T2 construct: expressed in transfected cells; host or cells: HEK/293 reporter cells (NF-kB luciferase)
T2 sequence (Q9NR97 27-1041): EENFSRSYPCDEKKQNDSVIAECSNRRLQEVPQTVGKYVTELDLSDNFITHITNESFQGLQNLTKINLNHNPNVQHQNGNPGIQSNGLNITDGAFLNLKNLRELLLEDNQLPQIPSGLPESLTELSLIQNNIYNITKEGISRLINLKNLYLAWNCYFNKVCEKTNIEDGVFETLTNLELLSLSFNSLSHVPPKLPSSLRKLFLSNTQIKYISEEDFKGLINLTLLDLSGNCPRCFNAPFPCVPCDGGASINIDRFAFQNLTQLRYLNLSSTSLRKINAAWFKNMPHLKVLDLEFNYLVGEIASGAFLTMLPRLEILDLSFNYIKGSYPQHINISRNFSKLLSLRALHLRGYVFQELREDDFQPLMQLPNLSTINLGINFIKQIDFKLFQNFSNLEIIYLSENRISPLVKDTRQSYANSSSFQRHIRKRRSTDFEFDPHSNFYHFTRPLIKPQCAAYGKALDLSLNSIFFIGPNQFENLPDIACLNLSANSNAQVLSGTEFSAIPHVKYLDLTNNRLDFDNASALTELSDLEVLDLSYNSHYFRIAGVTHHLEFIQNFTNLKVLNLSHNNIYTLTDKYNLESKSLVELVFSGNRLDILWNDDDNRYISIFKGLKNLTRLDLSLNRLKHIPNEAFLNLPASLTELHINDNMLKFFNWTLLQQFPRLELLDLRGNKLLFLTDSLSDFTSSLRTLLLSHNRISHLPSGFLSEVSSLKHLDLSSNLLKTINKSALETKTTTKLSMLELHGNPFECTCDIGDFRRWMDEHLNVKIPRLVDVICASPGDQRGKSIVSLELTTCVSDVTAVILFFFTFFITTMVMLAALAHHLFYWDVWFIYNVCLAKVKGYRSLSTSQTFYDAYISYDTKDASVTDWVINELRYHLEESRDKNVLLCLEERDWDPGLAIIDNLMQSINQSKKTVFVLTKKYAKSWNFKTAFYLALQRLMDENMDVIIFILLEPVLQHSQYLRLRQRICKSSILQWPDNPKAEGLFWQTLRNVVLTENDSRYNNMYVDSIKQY

Structure (SMILES) | IC50 (TLR7) [nM] | IC50 (TLR8) [nM]
C[C@H]1C[C@@H](NC(=O)CC2(F)CCNCC2)CN(c2ccc(C#N)c3nccnc23)C1 [Example 114, N-[(3R,5S)-1-(8-cyanoquinoxalin-5-yl)-5-methylpiperidin-3-yl]-2-(4-fluoropiperidin-4-yl)acetamide] | < 75 | < 75
C[C@H]1C[C@@H](NC(=O)[C@@H]2C[C@H](O)CN2)CN(c2ccc(C#N)c3nccnc23)C1 [Example 116, (2S,4S)—N-[(3R,5S)-1-(8-cyanoquinoxalin-5-yl)-5-methylpiperidin-3-yl]-4-hydroxypyrrolidine-2-carboxamide] | > 150 | < 75
N#Cc1ccc(N2C[C@H](NC(=O)CC3(N)CC3)C[C@H](C(F)(F)F)C2)c2nccnc12 [Example 119, 2-(1-aminocyclopropyl)-N-[(3R,5S)-1-(8-cyanoquinoxalin-5-yl)-5-(trifluoromethyl)piperidin-3-yl]acetamide] | 75 to 150 | < 75
C[C@H]1C[C@@H](NC(=O)CC2(N)CC2)CN(c2ccc(C#N)c3nccnc23)C1 [Example 120, 2-(1-aminocyclopropyl)-N-[(3R,5S)-1-(8-cyanoquinoxalin-5-yl)-5-methylpiperidin-3-yl]acetamide] | < 75 | < 75
Cc1ncc(N2C[C@@H](C)C[C@@H](NC(=O)CC3(N)CC3)C2)c2cccnc12 [Example 121, 2-(1-aminocyclopropyl)-N-[(3R,5S)-5-methyl-1-(8-methyl-1,7-naphthyridin-5-yl)piperidin-3-yl]acetamide] | 75 to 150 | < 75
N#Cc1ccc(N2C[C@H](NC(=O)[C@@H]3CCCN3)C[C@H](C(F)(F)F)C2)c2nccnc12 [Example 124, (2S)—N-[(3R,5S)-1-(8-cyanoquinoxalin-5-yl)-5-(trifluoromethyl)piperidin-3-yl]pyrrolidine-2-carboxamide] | < 75 | < 75
N#Cc1ccc(N2C[C@H](NC(=O)[C@@H]3CCCN3)C[C@H](C(F)(F)F)C2)c2cccnc12 [Example 125, (2S)—N-[(3R,5S)-1-(8-cyanoquinolin-5-yl)-5-(trifluoromethyl)piperidin-3-yl]pyrrolidine-2-carboxamide] | < 75 | < 75
N#Cc1ccc(N2C[C@H](NC(=O)[C@H]3CCCN3)C[C@H](C(F)(F)F)C2)c2cccnc12 [Example 126, (2R)—N-[(3R,5S)-1-(8-cyanoquinolin-5-yl)-5-(trifluoromethyl)piperidin-3-yl]pyrrolidine-2-carboxamide] | 75 to 150 | > 150
C[C@H]1C[C@@H](NC(=O)[C@@H](N)CC(N)=O)CN(c2ccc(C(F)(F)F)c3nccnc23)C1 [Example 127, (2S)-2-amino-N-[(3R,5S)-5-methyl-1-[8-(trifluoromethyl)quinoxalin-5-yl]piperidin-3-yl]butanediamide] | 75 to 150 | < 75
C[C@H]1C[C@@H](NC(=O)C[C@@H]2CCNC[C@@H]2F)CN(c2ccc(C#N)c3ncncc23)C1 [Example 131, N-[(3R,5S)-1-(8-cyanoquinazolin-5-yl)-5-methylpiperidin-3-yl]-2-[(3R,4S)-3-fluoropiperidin-4-yl]acetamide] | < 75 | > 150
C[C@H]1C[C@@H](NC(=O)C[C@H]2CCNC[C@H]2F)CN(c2ccc(C#N)c3ncncc23)C1 [Example 132, N-[(3R,5S)-1-(8-cyanoquinazolin-5-yl)-5-methylpiperidin-3-yl]-2-[(3S,4R)-3-fluoropiperidin-4-yl]acetamide] | < 75 | 75 to 150

Continued, values first:

IC50 (TLR7) [nM] | IC50 (TLR8) [nM] | Structure (SMILES)
> 150 | < 75 | Cc1c(F)cc(N2C[C@H](NC(=O)[C@@H]3CCCN3)C[C@H](C(F)(F)F)C2)c2cccnc12 [Example 115, (2S)—N-[(3R,5S)-1-(7-fluoro-8-methylquinolin-5-yl)-5-(trifluoromethyl)piperidin-3-yl]pyrrolidine-2-carboxamide]
< 75 | < 75 | O=C(CC1(F)CCNCC1)N[C@@H]1C[C@H](C(F)(F)F)CN(c2ccc(C(F)(F)F)c3ncccc23)C1 [Example 117, 2-(4-fluoropiperidin-4-yl)-N-[(3R,5S)-5-(trifluoromethyl)-1-[8-(trifluoromethyl)quinolin-5-yl]piperidin-3-yl]acetamide]
< 75 | < 75 | N#Cc1ccc(N2C[C@H](NC(=O)CC3(F)CCNCC3)C[C@H](C(F)(F)F)C2)c2nccnc12 [Example 118, N-[(3R,5S)-1-(8-cyanoquinoxalin-5-yl)-5-(trifluoromethyl)piperidin-3-yl]-2-(4-fluoropiperidin-4-yl)acetamide]
> 150 | < 75 | Cc1ccc(N2C[C@@H](C)C[C@@H](NC(=O)[C@@H]3CCCN3)C2)c2cccnc12 [Example 122, (2S)—N-[(3R,5S)-5-methyl-1-(8-methylquinolin-5-yl)piperidin-3-yl]pyrrolidine-2-carboxamide]
75 to 150 | < 75 | O=C(N[C@@H]1C[C@H](C(F)(F)F)CN(c2ccc(C(F)(F)F)c3ncccc23)C1)[C@@H]1CCCN1 [Example 123, (2S)—N-[(3R,5S)-5-(trifluoromethyl)-1-[8-(trifluoromethyl)quinolin-5-yl]piperidin-3-yl]pyrrolidine-2-carboxamide]
< 75 | < 75 | C[C@H]1C[C@@H](NC(=O)[C@@H](N)CC(N)=O)CN(c2ccc(C(F)(F)F)c3ncccc23)C1 [Example 128, (2S)-2-amino-N-[(3R,5S)-5-methyl-1-[8-(trifluoromethyl)quinolin-5-yl]piperidin-3-yl]butanediamide]
75 to 150 | < 75 | Cc1c(F)cc(N2C[C@@H](C)C[C@@H](NC(=O)[C@@H](N)CC(N)=O)C2)c2cccnc12 [Example 129, (2S)-2-amino-N-[(3R,5S)-1-(7-fluoro-8-methylquinolin-5-yl)-5-methylpiperidin-3-yl]butanediamide]
75 to 150 | < 75 | Cc1ccc(N2C[C@@H](C)C[C@@H](NC(=O)[C@@H](N)CC(N)=O)C2)c2cccnc12 [Example 130, (2S)-2-amino-N-[(3R,5S)-5-methyl-1-(8-methylquinolin-5-yl)piperidin-3-yl]butanediamide]
< 75 | < 75 | Cc1ccc(N2C[C@@H](C)C[C@@H](NC(=O)C(N)C3CC3)C2)c2cccnc12 (stereo partly drawn) [Example 133, 2-Amino-2-cyclopropyl-N-[(3R,5S)-5-methyl-1-(8-methyl-quinolin-5-yl)-piperidin-3-yl]-acetamide]
